# Laboratory results as given in a melting point compilation (Tetko et al.; mined from patent text by program, amines drawn as free bases though some values may be those of a salt).
row,Compound,melting point [°C]
1,CC(=O)c1ccc(-n2c(-c3cc(-c4ccncc4)c(N4CCOCC4)s3)nc3ccccc3c2=O)cc1,241 to 242
2,O=C(NC(Cc1ccccc1)C(=O)O)c1ccc(-c2ccccc2OC2OC(CO)C(O)C(O)C2O)cc1 (centres undefined),116 to 119
3,O=C(O)Cc1cc(=O)n(Cc2ccc(Cl)cc2)c2ccc([N+](=O)[O-])cc12,217 to 219
4,O=C(Oc1cc2ccccc2cc1OC(=O)c1cc(O)c(O)c(O)c1)c1cc(O)c(O)c(O)c1,182 to 183
5,CCOc1nn(-c2ccc(C(F)(F)F)cn2)cc1CCCOc1cccc(OC(C)(C)C(=O)O)c1,120 to 121
6,CCCc1c(OCCCCSCCC(=O)O)ccc(C(C)=O)c1O,75 to 77
7,O=C(O)COc1ccc2c(-c3ccccc3Cl)noc2c1Cl,165 to 168
8,N#CC1CCCn2cccc21 (centres undefined),47 to 49
9,CCOc1nn(Cc2ccc(OCn3nnc4ccccc43)cc2)cc1CCC(=O)O,136 to 137
10,CN(C)c1ncc2c(=O)n(CCN3CCCCC3)sc2n1,128 to 129
11,Cc1coc(C)c1-c1nc2cc(Cl)cc(CCc3ccccn3)c2o1,73 to 76
12,COc1ccc(N2CCOCC2)c2sc(-c3nc4ccccc4n3C)nc12,283 to 285
13,CCS(=O)(=O)N(C)[C@@H]1c2cc(C#N)ccc2OCC[C@H]1O (relative stereo),142 to 144
14,Cc1cc2nc(N3CCC(=S)CC3)nc(N)c2cc1C,187 to 188
15,CCCc1nn(-c2ccc(C(F)(F)F)cn2)cc1CCCCOc1c(CC(=O)O)cccc1OC,111 to 112
16,CC(=O)NC1(c2ccccc2)CCN(CC[C@@H](c2ccc(Cl)c(Cl)c2)[C@@H](O)c2ccnn2-c2ccccc2)CC1 (racemic),115 to 118
17,NS(=O)(=O)c1cc(C(=O)OCC(=O)N[C@@H](CCO[N+](=O)[O-])CO[N+](=O)[O-])c(NCc2ccco2)cc1Cl,93 to 95
18,CC(C)c1cccc(C(C)C)c1NC(=O)CN1CCN(CCSc2nc3ncccc3o2)CC1,153 to 154
19,CC(c1oc2ccccc2c(=O)c1-c1cccc(F)c1)n1nc(-c2ccc(S(C)(=O)=O)cc2)c2c(N)ncnc21 (centres undefined),259 to 262
20,O=C(O)C=CC(=O)Oc1ccccc1,127 to 128
21,NC(=O)N(O)C[C@H]1C[C@@H](c2ccccc2)C1,100
22,CCCN1C(=O)C2(COc3cc4c(cc32)OCO4)c2ccccc21 (centres undefined),158 to 160
23,COc1ccc2c(Cc3c(Cl)cncc3Cl)nnc(N3CCN(C)CC3)c2c1,160 to 162
24,CCc1[nH]nc2c1C(=O)c1c(NC(=O)CN3CCC(CN)CC3)cccc1-2,174 to 176
25,Cn1nncc1COc1nn2c(-c3ccccc3)nnc2cc1-c1ccccc1,190 to 193

row,Compound,melting point [°C]
1,O=c1cc(-c2ccc(O)cc2[N+](=O)[O-])oc2ccccc12,277 to 279
2,COc1cc2ncc(C#N)c(Nc3ccc(F)c(Cl)c3)c2cc1NC(=O)C=CCN(C)OC,210 to 217
3,Cc1c(C(=O)O)ccc2c3ccccc3n(Cc3ccccc3)c12,215 to 216
4,COc1ccc(Nc2cc(NCCCO)ncn2)cc1,151 to 152
5,CN1C(C(=O)NC2N=C3CCSC=C3S2)=C(O)c2ccc3ccccc3c2S1(=O)=O (centres undefined),255
6,CCNC(=O)C1CC(n2cnc3c(NC(CC)Cc4ccc(Cl)s4)ccnc32)C(O)C1O (centres undefined),77 to 85
7,CC(C)(C)c1ccc(Cn2ccc3cc(-c4ccc(C(C)(C)C)cc4)ccc32)cc1,167 to 168
8,O=C1CNC(SCc2ccccn2)=N1,105 to 107
9,CCNc1cc(Oc2ccc(NC(=O)NC3Cc4ccc(Br)cc4C3)cc2)ncn1 (centres undefined),247
10,CN(C)c1ccc(O)c2c1CC1CC3C(N(C)C)C(O)=C(C(N)=O)C(=O)C3(O)C(O)=C1C2=O (centres undefined),113
11,NNC(=O)c1ccc2c(c1)CCO2,148 to 149
12,COc1ccc(C2Cc3c(cccc3C(F)(F)F)NC(=O)C2=O)cc1 (centres undefined),221 to 223
13,COc1c(Cl)ccc(-c2cc(N)c(Cl)c(C(=O)N3CC=CCO3)n2)c1F,78 to 81
14,Nc1cc(=O)n(C2CCCC2)c2nc(N[C@H]3CC[C@H](O)CC3)ncc12,246 to 248
15,CC(c1ccc2c(c1)C(=O)c1ccccc1C2=O)N1CCNCC1 (centres undefined),97.7 to 98.1
16,CCCCCCN1C(=O)C(=O)c2cc(SCCCc3ccc(C(=O)O)cc3)ccc21,150 to 152
17,CC(=O)CC(=O)Nc1ccc(C(F)(F)F)cc1,144 to 145
18,Cc1ccsc1C(=O)c1sc(Nc2ccc(-n3ccnc3)cc2)nc1N,> 300
19,CCC(Oc1ccccc1C(C)=O)C(=O)OC1CC(O)C=C2C=CC(C)C(CCC3CC(O)CC(=O)O3)C21 (mixture of isomers),148 to 150
20,Nc1ncc(CCCCc2ccccc2)c(N)n1,126 to 127
21,Cc1ccc(-c2ccc(C(=O)Nc3ccc4nc(CN(C(C)C)C(C)C)ccc4c3)cn2)cc1,211 to 213
22,Oc1nn(-c2ccccc2)cc1CCc1cscn1,152 to 153
23,O=C(CCC1CCNCC1)c1ccc2[nH]c3ccccc3c2c1,206 to 209
24,O=C(NC1CCC(CCN2CCN(c3nccc4c3OCC4)CC2)CC1)c1ccc(N2CCS(=O)(=O)CC2)cc1 (centres undefined),260
25,O=[N+]([O-])c1cc(Cn2ccnc2)ccc1NC1CCCCC1,121

row,Compound,melting point [°C]
1,Clc1ccc2c(c1)C(c1ccccc1)=NCc1nnc(-c3ccccc3)n1-2,194
2,CCCCCCNC(=O)C1=C(C(=O)Nc2cc(OC3CCC(C)C3)c(Cl)cc2F)CCCC1 (centres undefined),127 to 129
3,CCOC(=O)CN1CCN(CC(O)COc2cc3c(Nc4cccc(Br)c4)ncnc3cc2OC)CC1 (centres undefined),118 to 122
4,CCCc1c(OCCCCCOc2ccc3c(c2CCC)OC(C(=O)OCC)CC3=O)ccc(C(C)=O)c1O (centres undefined),80 to 81
5,Cn1ncnc1COc1nc2c(cnn2-c2ccccc2)c2ccccc12,149 to 151
6,CCC(C)COC(=O)Cn1cccc1-c1nc(-c2ccc(OC)cc2)c(-c2ccc(OC)cc2)s1 (centres undefined),81.5 to 84.5
7,CN(C)C1(c2ccccc2)CCC(CNC(=O)Oc2ccccc2)CC1 (centres undefined),108 to 124
8,Cc1ccccc1-c1ccc(C(=O)N2Cc3ccc(C(=O)NCc4ccccc4C(F)(F)F)n3Cc3ccccc32)cc1C,126 to 128
9,COc1ccc(S(=O)(=O)c2ncccn2)cc1,72
10,Cn1cc(NC=O)cc1C(=O)O,208 to 210
11,CCCCOc1nc(N)nc2c1ncn2C1C=CC(CO)C1 (centres undefined),122 to 123
12,COc1ccc(Br)c2c1C(=O)CC2,125 to 128
13,CCc1cc2c(Cl)ccc(-n3c(=O)cc(C(F)(F)F)n(C)c3=O)c2o1,159 to 160
14,CSc1ccc2c(c1)C(O)Cc1ccc(C)cc1O2 (centres undefined),67 to 69
15,CCOc1ccc(C(=O)CCC(=O)Nc2sc(-c3ccccc3)nc2-c2ccccc2)cc1,169 to 170
16,Cc1nc(-c2ccc(C#N)cc2)sc1C(=O)N1CCO[C@@](Cn2cncn2)(c2ccc(F)cc2F)[C@H]1C,150 to 160
17,CS(=O)(=O)c1cc(-c2ccccc2)ncn1,109 to 111
18,COc1ccc2c(N3CCc4c(Br)ccc(C)c43)ncnc2c1,134 to 135
19,O=CC=C(c1cccc([N+](=O)[O-])c1)c1cccc([N+](=O)[O-])c1,131 to 136
20,CCc1c(N)c(C(N)=O)nn1C[C@H]1CCCN1C,130 to 133
21,CCCCCCOc1cccc(C[C@H](NC(=O)c2coc(NS(C)(=O)=O)n2)[C@H](O)CNCc2cccc(CC)c2)c1,85 to 90
22,CCCCCCNC(=O)C=C(C)C=CC=C(C)C=Cc1c(C)cc(OC)c(C)c1C,157 to 158
23,CCOC(=O)c1cc(-c2ccc(C#N)cc2)[nH]c1N,228 to 229
24,c1ccc(Cc2cnc(-c3ccccc3)c(-c3ccccc3)n2)cc1,118 to 119
25,CN1CC(C(=O)CN2CCOCC2)CC2c3cccc4[nH]cc(c34)CC21 (centres undefined),178 to 180

row,Compound,melting point [°C]
1,CCc1nc2c(N)nc3cc(CCCN)ccc3c2n1CC1CCOCC1,217 to 220
2,COc1ccc(Cn2cnc3c(-c4ccco4)nc(N(C)C)nc32)cc1,163 to 164
3,CC(C)(C)c1cc(C(Cl)Cl)c(Cl)c(C(C)(C)C)c1O,176 to 177
4,COc1cc2cc(CO)c(CO)c(-c3ccnc(NC(C)CCCO)c3)c2cc1OC (centres undefined),57 to 61
5,Cc1ccc(C)n1-c1ccc(I)cc1F,68 to 70
6,CCc1cc(C(=O)c2ccccc2Cl)c(-n2c(C)nnc2COC(=O)c2ccc(Cl)c(Cl)c2)s1,117 to 119
7,N#Cc1cc2cc(Br)ccc2[nH]c1=O,308 to 311
8,NC(=O)NCCCCCCNC(N)=O,197 to 200
9,Cc1cccc(C)c1OCC(=O)NC(C)C(N)=O (centres undefined),177 to 178
10,Oc1cccc(CN2CCOCC2)c1,113 to 115
11,CCCCCCCCCCCCCCOc1ccc(N)cc1,65 to 68
12,COc1cccc2c3c(cnc12)CCCN3c1ccccc1C,160 to 161
13,Cc1ccc(-c2ccccc2-c2n[nH]c(C(c3ccccc3)(c3ccccc3)c3ccccc3)n2)cc1,120 to 122
14,Fc1ccccc1C1=NCCN(C2=NCCO2)c2ccc(Cl)cc21,162 to 164
15,C=CCCCc1cc(-c2ccc(F)cc2)nc(C)n1,44.5 to 45.5
16,O=S(CBr)c1ccc2c(c1)OCO2 (centres undefined),88 to 89
17,COc1c(C)c2c(c(OS(C)(=O)=O)c1C/C=C(/Cl)CBr)C(=O)OC2,146 to 148
18,Cc1nc2c3c(ccc2n1C)[C@H]1OCCO[C@@H]1[C@@H](c1ccccc1)O3,307
19,CCCCCCCCCc1ccc(C(=O)CC(=O)C(=O)OC)cc1,52 to 53.5
20,COC(=O)c1cnn(OCCCC2OCCO2)c1,40 to 42
21,CC(C)c1ncc2cc(Cl)nc(Cl)n12,90 to 93
22,Cc1ccc(S(=O)(=O)N2CCCC2c2ccc(Cl)c(C)c2)cc1 (racemic),103
23,CC1Cc2ccccc2C(O)(C2CCN(C)CC2)c2ccsc21 (centres undefined),177 to 178
24,COc1ccc(NC(=S)NCC(OC)OC)cc1,215 to 217
